Source: patent US20250090505A1, “Methods for Preventing Ectopic Brain Mineralization in Alzheimer's Disease and Dementias” (Tzerma LLC, priority 2022, published 2025)

Tests used:
HCN-2 cells = test: Inhibition of biomineralization (hydroxyapatite production) by HCN-2 cells, Alizarin Red staining; assay type: cell-based, human; conditions: for effect on alkaline phosphatase and alpha-glycerophosphate triggered biomineralization / hydroxyapatite production by HCN-2 cells, each compound alone: FIGS. 5A-5B
[1] = references 30-31; cited from earlier work
[2] = test system: in vitro biomineralization reaction; test: Titration of the elements that trigger the in vitro biomineralization reaction; assay type: cell-based; conditions: titration assays, calcium, αGP and TNAP concomitantly present
Method: It is determined herein that the biomineralization reaction is dose-dependent on calcium, alpha-glycerophosphate and alkaline phosphatase. It is known that the physiological concentration of alkaline phosphatase in the brain is 1-2 international units per liter (IU/L), which is substantially lower than alkaline phosphatase in peripheral blood serum (44 to 147 IU/L)) (35, 36). […] The minimum dose of calcium, αGP, and TNAP that promptly triggers in vitro biomineralization reaction is 0.45 mM, 1.0 mM, and 100 IU/L, respectively (22).
To measure the physiological glycerophosphate, a method to quantify this organic compound in peripheral blood serum was invented The method of quantifying alpha-glycerophosphate is disclosed in international publication WO 2021/076851, the entirety of which is hereby incorporated by reference. […] The physiological concentration of alpha-glycerophosphate varied substantially amid adult individuals with a mean value of 2.90 mM and standard deviation of 1.98 (median=2.42 mM, max=9.60 mM, and min=0.15 mM). The wide range of alpha-glycerophosphate in blood is likely attributed to personal diet, e.g., a fatty diet and gut microbiome, and physical activity because alpha-glycerophosphate is a metabolite derived from fat to energize mitochondria (37). Overall, 83% of tested samples contained alpha-glycerophosphate greater than 1.0 mM, which is sufficient to trigger biomineralization when calcium and alkaline phosphatase are concomitantly present.

Molecule	effect on alkaline phosphatase and alpha-glycerophosphate triggered biomineralization (HCN-2 cells)	hydroxyapatite production by HCN-2 cells, each compound alone (HCN-2 cells; in vitro)	crossing of the blood-brain barrier [1]	minimum dose that promptly triggers in vitro biomineralization reaction [2]	also measured
O=C(O)P(=O)(O)O [Foscarnet, phosphonoformic acid]	inhibitory effects	entirely cease	cross the blood-brain barrier	–	concentration of Foscarnet that can competitively inhibit biomineralization (HCN-2 cells; in vitro, HCN-2 cells, MEMα/10% FBS with αGP and TNAP, 7 days, Alizarin Red (FIGS. 5A-5B)): at least 0.02 mM
Cl.c1ccc([C@H]2CN3CCSC3=N2)cc1 [Levamisole, (−)-(s)-2,3,5,6-tetrahydro-6-phenylimidazo(2,1-b)thiazole mono hydrochloride]	inhibitory effects	entirely cease	cross the blood-brain barrier	–	concentration of Levamisole at which biomineralization is inhibited (HCN-2 cells; HCN-2 cells, alpha-glycerophosphate 2 mM, recombinant human TNAP 1,000 U/L): 1 mM
[Ca+2] [calcium]	–	–	–	0.45 mM	–
O=P(O)(O)OCC(O)CO (stereo not drawn) [αGP, alpha-glycerophosphate]	–	–	–	1.0 mM	minimum dose that promptly triggers in vitro biomineralization reaction ([2]; listed as alpha-glycerophosphate): ≥ 1.0 mM
TNAP: human tissue nonspecific alkaline phosphatase, element that triggers biomineralization (protein, UniProt P05186 18-501, looked up) Alkaline phosphatase, …: LVPEKEKDPKYWRDQAQETLKYALELQKLNTNVAKNVIMFLGDGMGVSTVTAARILKGQLHHNPGEETRLEMDKFPFVALSKTYNTNAQVPDSAGTATAYLCGVKANEGTVGVSAATERSRCNTTQGNEVTSILRWAKDAGKSVGIVTTTRVNHATPSAAYAHSADRDWYSDNEMPPEALSQGCKDIAYQLMHNIRDIDVIMGGGRKYMYPKNKTDVEYESDEKARGTRLDGLDLVDTWKSFKPRYKHSHFIWNRTELLTLDPHNVDYLLGLFEPGDMQYELNRNNVTDPSLSEMVVVAIQILRKNPKGFFLLVEGGRIDHGHHEGKAKQALHEAVEMDRAIGQAGSLTSSEDTLTVVTADHSHVFTFGGYTPRGNSIFGLAPMLSDTDKKPFTAILYGNGPGYKVVGGERENVSMVDYAHNNYQAQSAVPLRHETHGGEDVAVFSKGPMAHLLHGVHEQNYVPHVMAYAACIGANLGHCAPAS	–	–	–	100 IU/L	–
